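The compound was tested at five concentrations on cells cultured in 96-well plates, with a 48-hour exposure period. TGI: concentration producing complete growth inhibition.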
How the values were obtained:
Assay in all cases: NCI-60 cell line screen, 48 h
786-0 renal = tested on: 786-0 renal
A498 renal = tested on: A498 renal
A549 NSCLC = tested on: A549 NSCLC
ACHN renal = tested on: ACHN renal
CAKI-1 renal = tested on: CAKI-1 renal
CCRF-CEM leukemia = tested on: CCRF-CEM leukemia
COLO 205 colon = tested on: COLO 205 colon
DLD-1 colon = tested on: DLD-1 colon
DMS 114 small cell lung = tested on: DMS 114 small cell lung
DMS 273 small cell lung = tested on: DMS 273 small cell lung
EKVX NSCLC = tested on: EKVX NSCLC
HCC-2998 colon = tested on: HCC-2998 colon
HCT-116 colon = tested on: HCT-116 colon
HCT-15 colon = tested on: HCT-15 colon
HL-60(TB) leukemia = tested on: HL-60(TB) leukemia
HOP-18 NSCLC = tested on: HOP-18 NSCLC
HOP-62 NSCLC = tested on: HOP-62 NSCLC
HOP-92 NSCLC = tested on: HOP-92 NSCLC
HT29 colon = tested on: HT29 colon
IGROV1 ovarian = tested on: IGROV1 ovarian
K-562 leukemia = tested on: K-562 leukemia
KM12 colon = tested on: KM12 colon
KM20L2 colon = tested on: KM20L2 colon
LOX IMVI melanoma = tested on: LOX IMVI melanoma
LXFL 529 NSCLC = tested on: LXFL 529 NSCLC
M14 melanoma = tested on: M14 melanoma
M19-MEL melanoma = tested on: M19-MEL melanoma
MALME-3M melanoma = tested on: MALME-3M melanoma
MOLT-4 leukemia = tested on: MOLT-4 leukemia
NCI-H226 lung = tested on: NCI-H226 lung
NCI-H23 lung = tested on: NCI-H23 lung
NCI-H460 lung = tested on: NCI-H460 lung
NCI-H522 lung = tested on: NCI-H522 lung
OVCAR-3 ovarian = tested on: OVCAR-3 ovarian
OVCAR-4 ovarian = tested on: OVCAR-4 ovarian
OVCAR-5 ovarian = tested on: OVCAR-5 ovarian
OVCAR-8 ovarian = tested on: OVCAR-8 ovarian
RXF 393 renal = tested on: RXF 393 renal
SF-268 CNS = tested on: SF-268 CNS
SF-295 CNS = tested on: SF-295 CNS
SF-539 CNS = tested on: SF-539 CNS
SK-MEL-2 melanoma = tested on: SK-MEL-2 melanoma
SK-MEL-28 melanoma = tested on: SK-MEL-28 melanoma
SK-MEL-5 melanoma = tested on: SK-MEL-5 melanoma
SK-OV-3 ovarian = tested on: SK-OV-3 ovarian
SN12C renal = tested on: SN12C renal
SNB-19 CNS = tested on: SNB-19 CNS
SNB-75 CNS = tested on: SNB-75 CNS
SNB-78 CNS = tested on: SNB-78 CNS
SR leukemia = tested on: SR leukemia
SW-620 colon = tested on: SW-620 colon
TK-10 renal = tested on: TK-10 renal
U251 CNS = tested on: U251 CNS
UACC-257 melanoma = tested on: UACC-257 melanoma
UACC-62 melanoma = tested on: UACC-62 melanoma
UO-31 renal = tested on: UO-31 renal
XF 498 CNS = tested on: XF 498 CNS

Measured: TGI

Cc1ccc(S(=O)(=O)N(/N=C(\N)Oc2ccc(Cl)cc2)C(=N)Oc2ccc(Cl)cc2)cc1
> 100 µM: all assays above

Source: PubChem BioAssay (NCI)
